The test has as its target T1, human NHE-1 (Homo sapiens, UniProt P19634).
T1 construct: expressed in transfected cells; host or cells: LAP-1 (NHE-deficient parental cell line), stably transfected, G418 selection
The test is described as follows: FLIPR assay of pHi recovery for NHE-1 inhibition. It counts as cell-based. To be noted: transfected LAP-1 cell line expressing human NHE-1, BCECF pHi recovery, read-out: NHE1 inhibition IC50. The protocol:
The inhibitory concentration IC50 for NHE-1 inhibition was determined as follows:
IC50 for NHE-1 inhibition were determined in a FLIPR assay by measurement of the recovery in pHi in transfected cell lines which express human NHE-1.
The assay was carried out in an FLIPR (fluorescent imaging plate reader) with black-walled 96-well microtiter plates with clear bases.
The growth medium for the transfected cells (Iscove+10% fetal calf serum) additionally contained G418 as selection antibiotic in order to ensure the presence of the transfected sequences.
The actual assay started with the removal of the growth medium and addition of 100 μl of loading buffer per well (5 μM BCECF-AM [2′,7′-bis(carboxyethyl)-5-(and -6-)carboxyfluorescein, acetoxymethyl ester] in 20 mM NH4Cl, 115 mM choline chloride, 1 mM MgCl2, 1 mM CaCl2, 5 mM KCl, 20 mM HEPES, 5 mM glucose; pH 7.4 [adjusted with KOH]). The cells were then incubated at 37° C. for 20 minutes. This incubation led to loading of the cells with the fluorescent dye whose fluorescence intensity depends on pHi, and with NH4Cl which makes the cells slightly alkaline. The nonfluorescent dye precursor BCECF-AM is, as ester, membrane-permeable. The actual dye BCECF is not membrane-permeable but is liberated inside cells by esterases. […]

Results on 1 compound are retold here after patent US7446225B2, “Pentafluorosulfanylphenyl-substituted benzoylguanidines, method for the production thereof, their use as a medicament or diagnostic agent, and a medicament containing these compounds” (Sanofi-aventis Deutschland GmbH, priority 2004, dated 2008).

T1 sequence (P19634 whole entry): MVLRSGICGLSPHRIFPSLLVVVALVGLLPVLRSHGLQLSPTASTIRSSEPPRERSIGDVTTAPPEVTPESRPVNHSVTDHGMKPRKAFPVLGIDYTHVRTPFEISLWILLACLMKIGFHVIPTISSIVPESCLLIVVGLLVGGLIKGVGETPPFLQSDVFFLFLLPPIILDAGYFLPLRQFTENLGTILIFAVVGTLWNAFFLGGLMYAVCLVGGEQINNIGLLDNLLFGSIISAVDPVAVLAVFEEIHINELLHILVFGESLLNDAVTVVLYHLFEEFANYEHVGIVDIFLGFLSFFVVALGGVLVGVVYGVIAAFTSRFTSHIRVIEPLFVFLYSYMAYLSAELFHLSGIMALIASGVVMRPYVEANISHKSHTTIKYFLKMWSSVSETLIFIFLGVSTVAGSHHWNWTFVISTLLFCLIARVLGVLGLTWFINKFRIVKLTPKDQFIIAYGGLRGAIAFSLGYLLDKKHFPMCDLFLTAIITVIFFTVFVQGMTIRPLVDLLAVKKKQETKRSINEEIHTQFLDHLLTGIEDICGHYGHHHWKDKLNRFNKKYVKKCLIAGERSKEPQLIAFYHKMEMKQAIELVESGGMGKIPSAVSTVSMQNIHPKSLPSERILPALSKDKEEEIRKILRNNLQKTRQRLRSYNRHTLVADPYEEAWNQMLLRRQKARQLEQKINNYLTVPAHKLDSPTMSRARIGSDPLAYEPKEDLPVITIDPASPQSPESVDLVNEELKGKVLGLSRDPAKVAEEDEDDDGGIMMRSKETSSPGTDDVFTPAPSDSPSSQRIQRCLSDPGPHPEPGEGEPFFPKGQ

Turning to `Cc1cc(Oc2ccc(S(C)(=O)=O)c(S(F)(F)(F)(F)F)c2)c(S(C)(=O)=O)cc1C(=O)N=C(N)N` [Example 1, N-[5-methanesulfonyl-4-(4-methanesulfonyl-3-pentafluorosulfanyl-phenoxy)-2-methylbenzoyl]guanidine], the IC50 was determined as 0.033 µM.
